This passage reports IC50 results from patent US20190231751A1, “TREATMENT OF FIBROTIC DISORDERS WITH JUN N-TERMINAL KINASE INHIBITORS” (Imago Pharmaceuticals, Inc., priority 2016, published 2019).

Type in all cases: biochemical
The target in one assay is JNK3 (Homo sapiens, UniProt P53779). Description: In vitro JNK3 inhibition (Table 1). Here is the method: (§1) In vitro assays for the determination of JNK activities are known in the art and exemplary assay formats are described herein.
(§2) IC50 values in Table 1 were determined using the procedures as described in U.S. Pat. No. 8,450,353.

For the next assay, the target named is JNK1 (Homo sapiens, UniProt P45983). As to the kind of experiment: In vitro JNK1 inhibition (Table 1). How it is done: as §1, §2
In the next assay the target is JNK2 (Homo sapiens, UniProt P45984). As to the kind of experiment: In vitro JNK2 inhibition (Table 1). How it is done:
as §1, §2

A value given as a limit tells only on which side of the number the result lay.

JNK1, sequence (P45983 whole entry, species assumed): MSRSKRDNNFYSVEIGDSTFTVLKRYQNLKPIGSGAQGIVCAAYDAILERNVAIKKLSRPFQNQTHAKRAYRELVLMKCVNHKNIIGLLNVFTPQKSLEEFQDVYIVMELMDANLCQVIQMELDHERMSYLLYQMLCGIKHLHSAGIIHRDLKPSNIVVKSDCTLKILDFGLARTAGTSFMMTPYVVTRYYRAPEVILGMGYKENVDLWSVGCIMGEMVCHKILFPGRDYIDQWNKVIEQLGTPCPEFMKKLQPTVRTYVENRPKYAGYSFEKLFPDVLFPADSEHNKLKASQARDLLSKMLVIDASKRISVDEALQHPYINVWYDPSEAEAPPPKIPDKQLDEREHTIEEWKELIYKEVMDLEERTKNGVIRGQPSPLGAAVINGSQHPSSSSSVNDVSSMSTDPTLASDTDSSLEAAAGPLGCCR
JNK2, sequence (P45984 whole entry, species assumed): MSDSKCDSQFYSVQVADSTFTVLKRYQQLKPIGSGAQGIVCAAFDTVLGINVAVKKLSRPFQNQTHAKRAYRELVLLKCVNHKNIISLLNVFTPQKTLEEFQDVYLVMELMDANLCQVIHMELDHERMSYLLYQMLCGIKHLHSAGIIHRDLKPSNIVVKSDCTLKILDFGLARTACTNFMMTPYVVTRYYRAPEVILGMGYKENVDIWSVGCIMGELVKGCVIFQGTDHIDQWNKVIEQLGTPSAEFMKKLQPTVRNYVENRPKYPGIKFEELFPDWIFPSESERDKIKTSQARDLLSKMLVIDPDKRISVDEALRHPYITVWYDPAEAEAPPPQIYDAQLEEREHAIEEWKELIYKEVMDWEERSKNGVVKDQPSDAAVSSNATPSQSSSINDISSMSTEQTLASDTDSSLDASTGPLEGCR
JNK3, sequence (P53779 whole entry, species assumed): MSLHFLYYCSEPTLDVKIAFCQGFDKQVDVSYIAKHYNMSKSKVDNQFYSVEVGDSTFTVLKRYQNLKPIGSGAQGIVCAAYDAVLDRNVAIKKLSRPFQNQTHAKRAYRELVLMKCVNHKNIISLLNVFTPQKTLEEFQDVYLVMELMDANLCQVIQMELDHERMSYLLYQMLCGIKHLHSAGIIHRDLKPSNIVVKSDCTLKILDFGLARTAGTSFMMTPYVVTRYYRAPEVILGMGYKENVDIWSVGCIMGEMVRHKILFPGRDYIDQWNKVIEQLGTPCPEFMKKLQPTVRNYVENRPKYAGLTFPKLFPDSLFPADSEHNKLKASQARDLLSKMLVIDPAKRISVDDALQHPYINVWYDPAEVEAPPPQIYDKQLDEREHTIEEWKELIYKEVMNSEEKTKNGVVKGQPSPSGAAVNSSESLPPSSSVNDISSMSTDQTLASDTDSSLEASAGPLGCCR

The IC50 is the point on the concentration scale where inhibition reaches its midpoint. The low end stands for higher potency, the high end for lower potency. As to `N#Cc1csc(NC(=O)Cc2cccc3ncccc23)c1-c1cnccn1` [N-(4-cyano-3-(pyrazin-2-yl)thiophen-2-yl)-2-(quinolin-5-yl)acetamide], the IC50 on JNK3 and at JNK1 was less than 0.1 µM each time.

Regarding `COc1ccc(CC(=O)Nc2ccsc2-n2nccn2)cc1` [N-(2-(2H-1,2,3-triazol-2-yl)thiophen-3-yl)-2-(4-methoxyphenyl)acetamide], the IC50 against JNK3 and against JNK1 was 0.1 to 10 µM throughout. Take `CCc1n[nH]c(-c2c(Cl)csc2NC(=O)CN2C(=O)CCc3ncccc32)n1` [N-(4-chloro-3-(3-ethyl-1H-1,2,4-triazol-5-yl)thiophen-2-yl)-2-(2-oxo-3,4-dihydro-1,5-naphthyridin-1(2H)-yl)acetamide]: the 50% inhibitory concentration (IC50) against JNK3 and at JNK1 was less than 0.1 µM in each case. `COc1nc(-c2sccc2NC(=O)Cc2cccc3cnccc23)cs1` [2-(isoquinolin-5-yl)-N-(2-(2-methoxythiazol-4-yl)thiophen-3-yl)acetamide]: the concentration for half-maximal inhibition (IC50) on JNK2 lay within 10 to 50 µM. Consider `COc1ccc(CC(=O)Nc2ccsc2-n2cccn2)cc1` [N-(2-(1H-pyrazol-1-yl)thiophen-3-yl)-2-(4-methoxyphenyl)-acetamide], for which the IC50 on JNK3 and on JNK1 was more than 10 µM each time. As for `COc1ccc(CC(=O)Nc2sccc2-c2nnn(C)n2)cc1` [2-(4-methoxyphenyl)-N-(3-(2-methyl-2H-tetrazol-5-yl)thiophen-2-yl)acetamide], the concentration for half-maximal inhibition (IC50) at JNK2 is 10 to 50 µM.

On to `O=C(CN1C(=O)CCc2ncccc21)Nc1scc(Br)c1-c1nccs1` [N-(4-bromo-3-(thiazol-2-yl)thiophen-2-yl)-2-(2-oxo-3,4-dihydro-1,5-naphthyridin-1(2H)-yl)acetamide], for which the IC50 against JNK3 and on JNK1 was less than 0.1 µM each time. `Cc1csc(NC(=O)Cc2cccc3cnccc23)c1-c1nc2ccccc2s1` [N-(3-(benzo[d]thiazol-2-yl)-4-methylthiophen-2-yl)-2-(isoquinolin-5-yl)acetamide] gave an IC50 against JNK2 of 10 to 50 µM. Still for that read-out and setting: the same measure for `Cc1nnc(-c2sccc2NC(=O)Cc2cccc3ccccc23)o1` [N-(2-(5-methyl-1,3,4-oxadiazol-2-yl)thiophen-3-yl)-2-(naphthalen-1-yl)acetamide]: 10 to 50 µM.

Turning to `O=C(Cn1c(=O)ccc2c(C(F)(F)F)cccc21)Nc1scc(Br)c1-c1ncn[nH]1` [N-(4-bromo-3-(1H-1,2,4-triazol-5-yl)thiophen-2-yl)-2-(2-oxo-5-(trifluoromethyl)quinolin-1(2H)-yl)acetamide], the concentration for half-maximal inhibition (IC50) on JNK3 and at JNK1 was less than 0.1 µM each time. Take `Cn1ncnc1-c1ncsc1NC(=O)Cc1cccc2cnccc12` [2-(isoquinolin-5-yl)-N-(4-(1-methyl-1H-1,2,4-triazol-5-yl)thiazol-5-yl)acetamide]: the IC50 against JNK2 is 0.1 to 10 µM. Regarding `COc1ccc(CC(=O)Nc2ccsc2-c2c[nH]c(C)n2)cc1` [2-(4-methoxyphenyl)-N-(2-(2-methyl-1H-imidazol-4-yl)thiophen-3-yl)acetamide], the half-inhibitory concentration (IC50) against JNK3 and on JNK1 was more than 10 µM throughout. As for `Cc1nc(-c2sccc2NC(=O)Cc2cccc3ccccc23)n(C)n1` [N-(2-(1,3-dimethyl-1H-1,2,4-triazol-5-yl)thiophen-3-yl)-2-(naphthalen-1-yl)acetamide], the IC50 against JNK3 and against JNK1 was more than 10 µM each time. For `O=C(Cc1cccc2ncsc12)Nc1scc(Br)c1-c1ncn[nH]1` [2-(benzo[d]thiazol-7-yl)-N-(4-bromo-3-(1H-1,2,4-triazol-5-yl)thiophen-2-yl)acetamide], the IC50 against JNK3 and at JNK1 was less than 0.1 µM each time. Consider `COc1ccc(CC(=O)Nc2ccsc2-n2cncn2)cc1` [N-(2-(1H-1,2,4-triazol-1-yl)thiophen-3-yl)-2-(4-methoxyphenyl)acetamide], for which the IC50 against JNK3 and at JNK1 was more than 10 µM in each case.

For the compound `Cn1ccc(-c2sccc2NC(=O)Cc2cccc3ccccc23)n1` [N-(2-(1-methyl-1H-pyrazol-3-yl)thiophen-3-yl)-2-(naphthalen-1-yl)acetamide], the concentration for half-maximal inhibition (IC50) at JNK3 and on JNK1 was more than 10 µM throughout.

Take `O=C(Cc1cccc2ccncc12)Nc1scc(Br)c1-c1ncn[nH]1` [N-(4-bromo-3-(1H-1,2,4-triazol-5-yl)thiophen-2-yl)-2-(isoquinolin-8-yl)acetamide]: the concentration for half-maximal inhibition (IC50) on JNK3 and against JNK1 was less than 0.1 µM throughout. In the case of `O=C(Cn1c(=O)ccc2cc(C(F)(F)F)ccc21)Nc1ccsc1-c1cscn1` [2-(2-oxo-6-(trifluoromethyl)quinolin-1(2H)-yl)-N-(2-(thiazol-4-yl)thiophen-3-yl)acetamide], the IC50 on JNK3 and against JNK1 was less than 0.1 µM throughout.

For the compound `O=C(Cc1cccc2cnccc12)Nc1scnc1-c1cscn1` [N-(4,4′-bithiazol-5-yl)-2-(isoquinolin-5-yl)acetamide], the concentration for half-maximal inhibition (IC50) on JNK3 and against JNK1 was less than 0.1 µM throughout. Take `Cc1n[nH]c(-c2c(C)csc2NC(=O)Cc2cccc3ncccc23)n1` [N-(4-methyl-3-(3-methyl-1H-1,2,4-triazol-5-yl)thiophen-2-yl)-2-(quinolin-5-yl)acetamide]: the IC50 on JNK3 and on JNK1 was less than 0.1 µM throughout.

Take `Cn1ccnc1-c1sccc1NC(=O)Cc1cccc2ccccc12` [N-(2-(1-methyl-1H-imidazol-2-yl)thiophen-3-yl)-2-(naphthalen-1-yl)acetamide]: the IC50 on JNK3 and against JNK1 was more than 10 µM throughout. Take `CN1CCN(CCCn2cnc(-c3c(Cl)csc3NC(=O)Cn3c(=O)ccc4cc(C(F)(F)F)ccc43)n2)CC1` [N-(4-chloro-3-(1-(3-(4-methylpiperazin-1-yl)propyl)-1H-1,2,4-triazol-3-yl)thiophen-2-yl)-2-(2-oxo-6-(trifluoromethyl)quinolin-1(2H)-yl)acetamide]: the 50% inhibitory concentration (IC50) against JNK3 and on JNK1 was less than 0.1 µM throughout. As to `COc1ccc(CC(=O)Nc2ccsc2-c2nnc(C(C)C)o2)cc1` [N-(2-(5-isopropyl-1,3,4-oxadiazol-2-yl)thiophen-3-yl)-2-(4-methoxyphenyl)acetamide], the IC50 at JNK3 and at JNK1 was more than 10 µM in each case. `COc1ccc(CC(=O)Nc2ccsc2-c2c[nH]cn2)cc1` [N-(2-(1H-imidazol-4-yl)thiophen-3-yl)-2-(4-methoxyphenyl)-acetamide]: the IC50 against JNK3 and against JNK1 was more than 10 µM each time. Turning to `O=C(Cc1cccc2ncc(C(F)(F)F)cc12)Nc1scc(Br)c1-c1nc[nH]n1` [N-(4-bromo-3-(1H-1,2,4-triazol-3-yl)thiophen-2-yl)-2-(3-(trifluoromethyl)quinolin-5-yl)acetamide], the IC50 against JNK3 and against JNK1 was less than 0.1 µM in each case. For the compound `O=C(Cc1ccc(F)c2ncccc12)Nc1scc(Br)c1-c1ncn[nH]1` [N-(4-bromo-3-(1H-1,2,4-triazol-5-yl)thiophen-2-yl)-2-(8-fluoroquinolin-5-yl)acetamide], the IC50 against JNK3 and at JNK1 was less than 0.1 µM in each case. `COCn1nnnc1-c1ccsc1NC(=O)Cc1ccc(OC)cc1` [N-(3-(1-(methoxymethyl)-1H-tetrazol-5-yl)thiophen-2-yl)-2-(4-methoxyphenyl)acetamide]: the IC50 at JNK3 and against JNK1 was 0.1 to 10 µM in each case. Regarding `Cc1nc(-c2sccc2NC(=O)CN2C(=O)CCc3ccccc32)c[nH]1` [N-(2-(2-methyl-1H-imidazol-4-yl)thiophen-3-yl)-2-(2-oxo-3,4-dihydroquinolin-1(2H)-yl)acetamide], the half-inhibitory concentration (IC50) on JNK3 and against JNK1 was more than 10 µM in each case.
